Counter-ions that a name gives are not always drawn.
Key:
[1] = tested on: spontaneously hypertensive rats of the Okamoto strain; experiment: Hypotensive activity in spontaneously hypertensive rats (method of Chan and Poorvin); format: in vivo; details: by gavage, 100 mg/kg or less, second identical dose 24 hours later, MABP measured 28 hours after initial dose, average MABP of the rats used 160±1.5 mm of mercury
Protocol: The novel compounds of the present invention are active hypotensive agents and were tested for hypotensive activity by the method of P.S. Chan and D. Poorvin, Clinical and Experimental Hypertension, 1 (6), 817-830 (1979). Male, 16 week old, spontaneously hypertensive rats of the Okamoto strain, from Taconic Farms, Germantown, New York, having an average mean arterial blood pressure of 160±1.5 mm of mercury, were used in the test. One to four rats were used per test compound. A rat is dosed by gavage with a test compound suspended in 2% pre-boiled starch at a concentration of 50 mg/ml, at a dose of 100 mg/kg of body weight or less, with 0.9% sodium chloride loading at a dose of 25 ml/kg of body weight. A second identical dose of the test compound, without sodium chloride loading is given 24 hours later. At 28 hours after the initial dose the mean arterial blood pressure (MABP) is measured. The procedure is repeated in a second and third rat when necessary. The results of this test on representative compounds of the present invention appear below in Table II.

[2] = molecular target: T1, thromboxane synthetase enzyme (Rattus norvegicus, UniProt P49430); experiment: Inhibition of thromboxane (TXB2) formation in washed rat platelets, TXB2 radioimmunoassay; format: biochemical, Okamoto-Aoki spontaneously hypertensive rats (SHR); details: Concentration 1x10^-4M, platelet suspension incubated 10 minutes at 37 °C
T1 construct: from tissue; host or cells: washed blood platelets from Okamoto-Aoki spontaneously hypertensive rats (SHR)
T1 sequence (P49430 1-533): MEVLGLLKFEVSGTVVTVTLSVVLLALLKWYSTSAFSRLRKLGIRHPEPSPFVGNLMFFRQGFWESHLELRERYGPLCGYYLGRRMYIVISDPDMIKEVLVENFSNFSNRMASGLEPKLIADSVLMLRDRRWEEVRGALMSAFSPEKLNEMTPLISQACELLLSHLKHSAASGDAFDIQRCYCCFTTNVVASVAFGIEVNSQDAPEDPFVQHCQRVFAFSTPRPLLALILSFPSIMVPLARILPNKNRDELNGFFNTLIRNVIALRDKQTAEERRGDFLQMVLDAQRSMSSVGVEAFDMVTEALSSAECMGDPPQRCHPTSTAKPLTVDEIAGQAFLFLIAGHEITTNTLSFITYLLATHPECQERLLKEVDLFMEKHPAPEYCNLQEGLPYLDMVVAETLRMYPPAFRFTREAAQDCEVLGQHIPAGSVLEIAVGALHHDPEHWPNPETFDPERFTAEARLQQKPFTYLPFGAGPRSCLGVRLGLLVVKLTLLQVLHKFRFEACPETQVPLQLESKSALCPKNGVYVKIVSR
Protocol: Under urethan anesthesia, […] of arterial blood from Okamoto-Aoki spontaneously hypertensive rats (SHR) (Taconic Farms, Germantown, NY) between 19 and 24 weeks in age is collected in one ml of 3.2% sodium citrate in a polystyrene tube. The blood is diluted with 3 ml of cold saline and centrifuged at room temperature for 15 minutes at 460xg. The platelet rich plasma (PRP) is separated. The platelets are isolated by centrifuging the PRP for 10 minutes at 1060xg and are washed in 4 ml of cold oxygenated Krebs phosphate buffer, pH 7.4. The chilled platelets, recovered from centrifuging at 800xg for 10 minutes, are resuspended in oxygenated Krebs phosphate buffer and diluted to contain 4.5-6.0 x 10⁴ platelets/µ1. The inhibition of thromboxane (TX) formation is studied by determining the concentration of thromboxane B₂ (TXB₂), the stable hydrolysis product of TXA₂. Assay samples, prepared on ice, contain 200 µ1 platelet suspension, 50 µ1 saline, and 50 µ1 vehicle (saline) or drug under study. The samples are incubated for 10 minutes at 37 °C in a metabolic shaker. The reaction is terminated by immersing the tubes in an ice bath and adding 50 µl of 0.5M citric acid. The samples are centrifuged for 10 minutes in a refrigerated centrifuge and the supernatants thus obtained are decanted and stored at -20 °C. The TXB₂ content for each sample is determined by a direct radioimmunoassay (RIA) utilizing a TXB₂ specific RIA kit purchased from New England Nuclear, Boston, MA and expressed as pg TXB₂ formed per minute per sample, from which the percent inhibition of TXB₂ formation is calculated.

[3] = tested on: Male mice of the Swiss Webster Strain; experiment: Calcium chloride-induced arrhythmia in anesthetized mice (survival); format: in vivo; details: Mus musculus, iv, Dose = 10 mg/kg i.v.; calcium chloride 200 mg/kg i.v. bolus 5, 15 or 30 minutes after drug; observed 15 minutes; read-out: CaCl2 #Mice Surviving #Mice Tested (converted)
Description: (§1) Intravenous administration of high doses of calcium or potassium chloride in animals produces cardiac arrhythmias, cardiac fibrillation and cardiac arrest. Any agent that can prevent these events is considered an antiarrhythmic/antifibrillatory agent. (Meth. and Find Exptl. Clin Pharmacol.2:223-252(1980); Pharmacol, Ther. 24:401-433 (1984); Experimental Cardiac and Antiarrhythmic Drugs, L. Szekeres and Gy. J. Dapp, Akademiai Kiado Preso, Budapest, 9-448 (1971).)
(§2) The method employed is as follows: Male mice of the Swiss Webster Strain (Charles River, Wilmington, MA) weighing 25-35 g are anesthetized with ethyl carbamate (urethan) (1.5g/kg body weight i.p.). A 25-gauge needle attached to PE-20 tubing is inserted into a caudal vein for drug administration. The lead II ECG is recorded by needle electrodes placed subcutaneously in the limbs. All data is collected on a Gould Brush recorder. Animals are observed 5 minutes before drug administration. A 5, 15, or 30 minute period following drug administration is allowed before the bolus injection of calcium chloride, 200 mg/kg i.v. or potassium chloride, 62.5 mg/kg i.v. Control mice receive 4 ml/kg of 0.9% sodium chloride i.v. Mice are observed an additional 15 minutes for arrhythmias, fibrillation, survival or death. Any compound at a dose of less than 20 mg/kg i.v. that protects 3 out of 6 mice from cardiac death in either the potassium or calcium chloride test, is considered active.

[4] = tested on: Male mice of the Swiss Webster Strain; experiment: Potassium chloride-induced arrhythmia in anesthetized mice (survival); format: in vivo; details: Mus musculus, iv, Dose = 10 mg/kg i.v.; potassium chloride 62.5 mg/kg i.v. bolus 5, 15 or 30 minutes after drug; observed 15 minutes; read-out: KCl #Mice Surviving #Mice Tested (converted)
Description: as §1, §2

SMILES	Avg. MABP in mm Hg (No. of Rats) ([1]; 100 mg/kg)	inhibition at 100 µM [2]	Avg. MABP in mm Hg (No. of Rats) [1]	responders at 10 mg/kg [3]	responders at 10 mg/kg [4]
O=[N+]([O-])c1ccc(NCCCn2ccnc2)nc1 [Example 1, N-[3-(1H-Imidazol-1-yl)propyl]-5-nitro-2-pyridinamine,(Z)-2-butenedioate (1:1)]	121 (4) mm Hg	–	–	–	–
O=[N+]([O-])c1cccnc1NCCCn1ccnc1 [Example 2, N-[3-(1H-Imidazol-1-yl)propyl]-3-nitro-2-pyridinamine]	–	80%	98 (2) mm Hg	50%	66.7%
Cc1ccc(C#N)c(NCCCn2ccnc2)n1 [Example 3, 2-[[3-(1H-Imidazol-1-yl)propyl]amino]-6-methyl-3-pyridinecarbonitrile]	–	79%	80 (2) mm Hg	–	–
N#Cc1cccnc1NCCCn1ccnc1 [Example 4, 2-[[3-(1H-Imidazol-1-yl)propyl]amino]-3-pyridinecarbonitrile]	–	93%	117 (4) mm Hg	66.7%	16.7%
c1ccc2nc(NCCCn3ccnc3)ccc2c1 [Example 5, N-[3-(1H-Imidazol-1-yl)propyl]-2-quinolinamine]	–	93%	97 (2) mm Hg	83.3%	50%
Cc1cc(NCCCn2ccnc2)nc2ccccc12 [Example 6, N-[3-(1H-Imidazol-1-yl)propyl]-4-methyl-2-quinolinamine]	–	98%	100 (3) mm Hg	–	–
c1ccc2c(c1)nc(NCCCn1ccnc1)c1ccccc12 [Example 8, N-[3-(1H-Imidazol-1-yl)propyl]-6-phenanthridinamine]	–	100%	103 (2) mm Hg	33.3%	100%
O=[N+]([O-])c1ccc(NCCCn2ccnc2)nc1 [Example 11, N-[3-(1H-imidazol-1-yl)propyl]-5-nitro-2-pyridinamine]	119 (2) mm Hg	–	–	0%	50%
c1ccc2c(NCCCn3ccnc3)nccc2c1 [Example 14, N-[3-(1H-Imidazol-1-yl)propyl]-1-isoquinolinamine]	–	84%	121 (3) mm Hg	–	–
COc1ccc2nc(NCCCn3ccnc3)cc(C)c2c1 [Example 21, N-[3-(1H-Imidazol-1-yl)propyl]-6-methoxy-4-methyl-2-quinolinamine]	–	97%	110 (2) mm Hg	–	–
Cc1nc(NCCCn2ccnc2)ccc1C#N [Example 30, 6-[[3-(1H-Imidazol-1-yl)propyl]amino]-2-methyl-3-pyridinecarbonitrile]	–	94%	61 (2) mm Hg	16.7%	100%
c1cn(CCCNc2ccc3sccc3n2)cn1 [Example 62, N-[3-(1H-Imidazol-1-yl)propyl]thieno[3,2-b]-pyridin-5-amine]	–	91%	105 (2) mm Hg	–	–
N#Cc1cc2ccccc2nc1NCCCn1ccnc1 [Example 82, 2-[[3-(1H-Imidazol-1-yl)propyl]amino]-3-quinolinecarbonitrile]	–	–	94 (2) mm Hg	–	–
Cc1cc(NCCC(C)n2ccnc2)nc2ccccc12 (centres unmarked) [Example 87, N-[3-(1H-Imidazol-1-yl)butyl]-4-methyl-2-quinolinamine]	–	–	111 (2) mm Hg	–	–
Cc1ccc(C#N)c(NCCCCCn2ccnc2)n1 [Example 90, 2-[[5-(1H-Imidazol-1-yl)pentyl]amino]-6-methyl-3-pyridinecarbonitrile]	–	–	116 (2) mm Hg	0%	50%
Cc1cc(NCCCc2cccnc2)nc2ccccc12.Cl.Cl [Example 98, 4-Methyl-N-[3-(3-pyridinyl)propyl]-2-quinolinamine, dihydrochloride]	–	–	95 (2) mm Hg	83.3%	83.3%
Cc1cc(NCCCCn2ccnc2)nc2ccccc12 [Example 101, N-[4-(1H-Imidazol-1-yl)butyl]-4-methyl-2-quinolinamine]	–	–	96 (2) mm Hg	–	–
Cc1cc(NCCCCc2cccnc2)nc2ccccc12 [Example 103, 4-Methyl-N-4-(3-pyridinylbutyl)-2-quinolinamine, dihydrochloride]	–	–	87 (2) mm Hg	–	–
c1ccc2c(c1)nc(NCCCCn1ccnc1)c1ccccc12 [Example 104, N-[4-(1H-Imidazol-1-yl)butyl]-6-phenanthridinamine]	–	–	93 (1) mm Hg	–	–
c1cncc(CCCCNc2nccc3ccccc23)c1 [Example 105, N-[4-(3-Pyridinyl)butyl]-1-isoquinolinamine, dihydrochloride]	–	97%	–	50%	66.7%
COc1ccc2nc(NCCCCc3cccnc3)cc(C)c2c1 [Example 106, 6-Methoxy-4-methyl-N-[4-(3-pyridinyl)butyl]-2-quinolinamine]	–	97%	120 (2) mm Hg	–	–
Cc1cc(NCCCCc2cccnc2)nc2c(C)cccc12 [Example 107, 4,8-Dimethyl-N-[4-(3-pyridinyl)butyl]-2-quinolinamine]	–	99%	–	0%	83.3%
Cc1ccc(C#N)c(NCCCCc2cccnc2)n1 [Example 108, 6-Methyl-2-[[4-(3-pyridinyl)butyl]amino]-3-pyridinecarbonitrile]	–	96%	–	66.7%	83.3%

Reference: patent EP0446604A2, “Pyridine and related aza heterocycle derivatives as cardiovascular agents” (AMERICAN CYANAMID COMPANY, priority 1990, dated 1991)
